Results as given in patent US9238631B2, “Radiolabeled amino acids for diagnostic imaging” (PIRAMAL IMAGING SA, priority 2011, dated 2016).

Columns and labels:
xCT (SLC7A11) = target: T1, xCT (SLC7A11) (Homo sapiens, UniProt Q9UPY5); experiment: Competition profile indicating uptake via xCT (SLC7A11); format: cell-based; conditions: NCI-H460 cells; for reduction of [^18F]-12 uptake by excess competitor: competitor 1 mM; for competition profile / uptake mechanism of the tracer: co-incubation with 1 mM cold competitors
T1 construct: NCI-H460 tumor cells were co-incubated with the F-18 labeled tracer and several cold derivatives; endogenous in cells; host or cells: NCI-H460 tumor cells
T1 sequence (Q9UPY5 1-501): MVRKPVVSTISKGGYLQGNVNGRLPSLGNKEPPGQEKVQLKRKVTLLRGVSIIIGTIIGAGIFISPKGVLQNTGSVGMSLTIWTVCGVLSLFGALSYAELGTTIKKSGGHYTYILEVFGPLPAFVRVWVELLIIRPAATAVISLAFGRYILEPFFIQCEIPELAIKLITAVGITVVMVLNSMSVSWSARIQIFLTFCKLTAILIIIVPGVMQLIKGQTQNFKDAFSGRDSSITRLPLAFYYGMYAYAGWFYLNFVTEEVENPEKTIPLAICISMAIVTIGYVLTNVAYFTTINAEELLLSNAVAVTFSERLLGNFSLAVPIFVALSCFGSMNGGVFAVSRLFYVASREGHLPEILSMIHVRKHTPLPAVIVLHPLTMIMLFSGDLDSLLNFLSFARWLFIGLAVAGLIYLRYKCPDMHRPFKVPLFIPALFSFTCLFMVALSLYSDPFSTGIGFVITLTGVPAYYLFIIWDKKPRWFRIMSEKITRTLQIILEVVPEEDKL
T1 sequence (P08195 1-529 partner): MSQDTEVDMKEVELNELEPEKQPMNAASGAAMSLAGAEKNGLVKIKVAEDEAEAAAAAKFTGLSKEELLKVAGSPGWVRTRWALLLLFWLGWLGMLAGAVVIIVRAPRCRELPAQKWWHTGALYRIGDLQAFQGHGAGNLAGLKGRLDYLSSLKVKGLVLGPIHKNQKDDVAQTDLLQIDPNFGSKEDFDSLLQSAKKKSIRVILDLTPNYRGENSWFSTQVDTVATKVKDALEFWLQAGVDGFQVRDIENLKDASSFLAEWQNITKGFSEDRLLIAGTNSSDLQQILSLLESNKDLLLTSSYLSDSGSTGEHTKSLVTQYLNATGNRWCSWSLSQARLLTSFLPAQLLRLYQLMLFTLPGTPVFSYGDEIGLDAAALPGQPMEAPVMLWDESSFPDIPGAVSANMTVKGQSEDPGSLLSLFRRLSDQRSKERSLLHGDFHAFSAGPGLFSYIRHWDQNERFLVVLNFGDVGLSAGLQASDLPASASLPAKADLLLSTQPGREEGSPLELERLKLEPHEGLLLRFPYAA
Description: For determination of the responsible uptake mechanism, NCI-H460 tumor cells were co-incubated with the F-18 labeled tracer and several cold derivatives. These derivatives were used at a concentration of 1 mM, which is a large excess compared to the tracer. L-Glutamic acid, L-cystine, Carboxyphenylglycine (CPG) were used as competitors. In addition, also D-Glutamic acid, as well as L-aspartic acid and D-aspartic acid were used in this competition experiments. […] The same experiments were performed using [^18F]-1, [^18F]-4, [^18F]-9, [^18F]-8, [^18F]-25 and [^18F]-22.

[1] = test system: NCI-H460 (human NSCLC) cells; experiment: In vitro cell-uptake study: blocking of radiolabeled glutamate derivative uptake; format: cell-based; conditions: compound 1 mM, 30 minutes, mean ± SD, without compound = 100%
Description: The ability of compounds from the present invention to compete with radiolabeled glutamate derivatives for uptake into tumor cells was examined. NCI-H460 (human NSCLC) cells, grown adherently in 48 well plates were used for these competition-experiments. Approximately 100.000 cells were co-incubated in PBS-buffer containing 0.1% BSA with a radiolabeled Glutamic acid derivative and several compounds, which were used at a concentration of 1 mM for 30 minutes. After this time, the cell bound radioactivity was determined.

[2] = test system: NCI-H460 (human NSCLC) cells; experiment: Cell uptake studies: 30 min uptake in H460 cells; format: cell-based; conditions: 0.25 MBq tracer, PBS 0.1% BSA
Description: For determination of the biological activity, the F18 labeled derivatives were used as tracers in cell uptake experiments. NCI-H460 (human NSCLC) cells, grown adherently in 48 well plates were used for these uptake-experiments. Approximately 100.000 cells were incubated with 0.25 MBq of the tracers for 30 min in PBS-buffer containing 0.1% BSA. After this time, the cell-bound radioactivity was determined using a γ-counter.

NCI-H460 tumor [3] = experiment: In vivo biodistribution in NCI-H460 tumor bearing mice; conditions: for T/Blood / T/Muscle: 1 h post injection
Description: (§1) To test the pharmacokinetic properties of compounds from the present invention, all F18-labeled compounds were examined by biodistribution studies in NCI-H460 tumor bearing mice. Female NMRI (nu/nu) mice were inoculated with 5×10^6 NCI-H460 tumor cells 8 to 10 days before the biodistribution studies. 185 kBq of activity of the fluorinated compound was injected and at least n=3 mice were used for every time point. After injection of the F18-labeled compound, mice were sacrificed at defined time-points. All organs were removed and radioactivity was determined using a γ-counter.
To compare the tumor uptake and retention of radioactivity of different ^18F-labeled derivatives from the present invention, biodistribution studies were performed in NCI-H460 tumor bearing NMRI (nu/nu) mice as described above.
To compare the kidney clearance of several ^18F-labeled derivatives from the present invention, biodistribution studies were performed in NCI-H460 tumor bearing female NMRI (nu/nu) mice as described above. […] After 2 h p.i., less than 1% ID/g can be found in the kidneys.
For comparison of pancreas uptake and clearance of several ^18F-labeled derivatives from the present invention, biodistribution studies were performed in NCI-H460 tumor bearing NMRI (nu/nu) mice as described above. […] After 2 h p.i., less than 2% ID/g can be found in the pancreas.
as §1, with “and” for “for every time point. After injection of the F18-labeled compound, mice were”, “time-points raning from 15 min pi up to 2 h p.i.” for “time-points.”, “γ-counter. […] High tumor uptake values of >3% ID/g were obtained with various compounds from the present invention.” for “γ-counter.”

NCI-H460 tumor [4] = experiment: PET imaging in NCI-H460 tumor bearing nude-rats; format: in vivo; conditions: PET ROI analysis, 1 h p.i.
Description: c) Beside PET-imaging studies in mice, also the imaging properties of [^18F]-12 in rats were examined. NCI-H460 tumor cells were inoculated into the right flank of nude-rats (RH-Foxn1 nu/nu) 8 to 10 days before the PET study. PET images were acquired at 60 min after injection of approximately 10 MBq for 10 minutes. The H460 tumor was nicely visible (0.9% ID/g as determined by ROI analysis). Beside some minor uptake into the liver and kidneys due to the excretion of the compound, no uptake into other non-target tissues was observed.
To test the imaging properties, compounds from the present invention were evaluated in PET imaging studies using tumor bearing rats. NCI-H460 tumor cells were inoculated into the right flank of nude-rats (RH-Foxn1 nu/nu) 8 to 10 days before the PET study. PET images were acquired at 60 min after injection of approximately 10 MBq for 10 minutes. After the imaging study, region-of-interest (ROI) analysis was performed and activity in tumor, liver and kidney was determined. […] High tumor uptake values of >1% […] in this rat model were obtained with various compounds from the present invention. A favorable clearance profile of all compounds enables excellent tumor detection in PET imaging studies in tumor bearing rats.

N[C@H](CCC(=O)O)C(=O)O [D-Glutamic acid, reference compound]
reduction of [^18F]-12 uptake by excess competitor (xCT (SLC7A11)): less effective competitors

N[C@H](CC(=O)O)C(=O)O [D-aspartic acid, reference compound]
reduction of [^18F]-12 uptake by excess competitor (xCT (SLC7A11)): less effective competitors

N[C@@H](C[C@H](Cc1ccc(OCCCF)cc1)C(=O)O)C(=O)O [Example 4, (4S)-4-[4-(3-Fluoropropoxy)benzyl]-L-glutamic acid]
Uptake of radiolabeled glutamate-derivative (% of control) [1]: 3.0 ± 0.1 % of control

N[C@@H](CC(Cc1ccc(CCCF)cc1)C(=O)O)C(=O)O (stereo partly drawn) [Example 9, 4-[4-(3-Fluoropropyl)benzyl]-L-glutamic acid]
Uptake of radiolabeled glutamate-derivative (% of control) [1]: 14.2 ± 1.0 % of control

N[C@@H](CCC(Cc1ccc(OCCF)cc1)C(=O)O)C(=O)O (stereo partly drawn) [Example 12, (2S)-2-Amino-5-[4-(2-Fluoroethoxy)benzyl]-hexanedioic acid]
Uptake of radiolabeled glutamate-derivative (% of control) [1]: 3.9 ± 0.3 % of control

N[C@@H](CC(CCCc1ccc(CCCF)cc1)C(=O)O)C(=O)O (stereo partly drawn) [Example 19, 4-{3-[4-(3-Fluoropropyl)phenyl]propyl}-L-glutamic acid]
Uptake of radiolabeled glutamate-derivative (% of control) [1]: 6.6 ± 1.6 % of control

N[C@H](C[C@@H](Cc1ccc(OCCF)cc1)C(=O)O)C(=O)O [Example 23, (4R)-4-[4-(2-Fluoroethoxy)benzyl]-D-glutamic acid]
Uptake of radiolabeled glutamate-derivative (% of control) [1]: 43.8 ± 3.2 % of control

N[C@H](C[C@@H](Cc1ccc(OCCCF)cc1)C(=O)O)C(=O)O [Example 24, (4R)-4-[4-(3-Fluoropropoxy)benzyl]-D-glutamic acid]
Uptake of radiolabeled glutamate-derivative (% of control) [1]: 36.5 ± 3.8 % of control

N[C@@H](C[C@H](CCCc1ccc(OCCF)cc1)C(=O)O)C(=O)O [Example 25, (4S)-4-{3-[4-(2-Fluoroethoxy)phenyl]propyl}-L-glutamic acid]
Uptake of radiolabeled glutamate-derivative (% of control) [1]: 20.1 ± 0.4 % of control

N[C@@H](CC(=O)O)C(=O)O [L-aspartic, L-aspartic acid, reference compound]
reduction of [^18F]-12 uptake by excess competitor (xCT (SLC7A11)): less effective competitors

N[C@@H](CSSC[C@H](N)C(=O)O)C(=O)O [L-cystine, reference compound]
Uptake of radiolabeled glutamate-derivative (% of control) [1]: 10.7 ± 0.7 % of control

N[C@@H](CCC(=O)O)C(=O)O [L-glutamic acid, L-glutamate, reference compound]
Uptake of radiolabeled glutamate-derivative (% of control) [1]: 26.1 ± 0.3 % of control

N[C@@H](CC(Cc1ccc(OCCC[18F])cc1)C(=O)O)C(=O)O (stereo partly drawn) [[^18F]-4, 4-[4-(3-[^18F]Fluoropropoxy)benzyl]-L-glutamic acid]
30 min uptake into H460 cells [%/100.000 cells] [2]: 10.0 ± 0.3 %/100.000 cells
competition profile / uptake mechanism of the tracer (xCT (SLC7A11)): identical competition profile
Kidney (% ID/g at 1 h p.i.) (NCI-H460 tumor [3]): 1.0 ± 0.3 % ID/g
Liver (% ID/g at 1 h p.i.) (NCI-H460 tumor [3]): 1.5 ± 0.5 % ID/g
Pancreas (% ID/g at 1 h p.i.) (NCI-H460 tumor [3]): 0.8 ± 0.1 % ID/g
Tumor (% ID/g at 1 h p.i.) (NCI-H460 tumor [3]): 2.8 ± 1.8 % ID/g
Urine (% ID at 1 h p.i.) (NCI-H460 tumor [3]): 79.8 ± 2.2 % ID
T/Blood (NCI-H460 tumor [3]): 14.5
T/Muscle (NCI-H460 tumor [3]): 38.8
Kidney (% ID/g at 1 h p.i.) (NCI-H460 tumor [4]): 1.2 % ID/g
Liver (% ID/g at 1 h p.i.) (NCI-H460 tumor [4]): 1.1 % ID/g
Tumor (Max % ID/g at 1 h p.i.) (NCI-H460 tumor [4]): 1 % ID/g
Tumor (Mean % ID/g at 1 h p.i.) (NCI-H460 tumor [4]): 0.7 % ID/g

N[C@@H](CC(Cc1ccc(NCCC[18F])cc1)C(=O)O)C(=O)O (stereo partly drawn) [[^18F]-8, 4-{4-[(3-[^18F]Fluoropropyl)amino]benzyl}-L-glutamic acid]
30 min uptake into H460 cells [%/100.000 cells] [2]: 15.3 ± 0.1 %/100.000 cells
competition profile / uptake mechanism of the tracer (xCT (SLC7A11)): identical competition profile
Kidney (% ID/g at 1 h p.i.) (NCI-H460 tumor [3]): 2.8 ± 0.6 % ID/g
Liver (% ID/g at 1 h p.i.) (NCI-H460 tumor [3]): 1.3 ± 0.3 % ID/g
Pancreas (% ID/g at 1 h p.i.) (NCI-H460 tumor [3]): 2.2 ± 0.4 % ID/g
Tumor (% ID/g at 1 h p.i.) (NCI-H460 tumor [3]): 4.6 ± 0.9 % ID/g
Urine (% ID at 1 h p.i.) (NCI-H460 tumor [3]): 92.7 ± 3.8 % ID
T/Blood (NCI-H460 tumor [3]): 26.8
T/Muscle (NCI-H460 tumor [3]): 46.3

N[C@@H](CC(Cc1ccc(CCC[18F])cc1)C(=O)O)C(=O)O (stereo partly drawn) [[^18F]-9, 4-[4-(3-[^18F]Fluoropropyl)benzyl]-L-glutamic acid]
30 min uptake into H460 cells [%/100.000 cells] [2]: 4.3 ± 0.2 %/100.000 cells
competition profile / uptake mechanism of the tracer (xCT (SLC7A11)): identical competition profile
Kidney (% ID/g at 1 h p.i.) (NCI-H460 tumor [3]): 0.7 ± 0.04 % ID/g
Liver (% ID/g at 1 h p.i.) (NCI-H460 tumor [3]): 0.2 ± 0.1 % ID/g
Pancreas (% ID/g at 1 h p.i.) (NCI-H460 tumor [3]): 0.1 ± 0.01 % ID/g
Tumor (% ID/g at 1 h p.i.) (NCI-H460 tumor [3]): 1.8 ± 0.9 % ID/g
Urine (% ID at 1 h p.i.) (NCI-H460 tumor [3]): 86.3 ± 7.1 % ID
T/Blood (NCI-H460 tumor [3]): 20.5
T/Muscle (NCI-H460 tumor [3]): 61.7

N[C@@H](C[C@H](CCCc1ccc(OCC[18F])cc1)C(=O)O)C(=O)O [[^18F]-25, (4S)-4-{3-[4-(2-[^18F]Fluoroethoxy)phenyl]propyl}-L-glutamic acid]
30 min uptake into H460 cells [%/100.000 cells] [2]: 3.1 ± 01 %/100.000 cells
competition profile / uptake mechanism of the tracer (xCT (SLC7A11)): identical competition profile
Kidney (% ID/g at 1 h p.i.) (NCI-H460 tumor [3]): 0.2 ± 0.05 % ID/g
Liver (% ID/g at 1 h p.i.) (NCI-H460 tumor [3]): 0.2 ± 0.1 % ID/g
Pancreas (% ID/g at 1 h p.i.) (NCI-H460 tumor [3]): 0.04 ± 0.01 % ID/g
Tumor (% ID/g at 1 h p.i.) (NCI-H460 tumor [3]): 0.5 ± 0.1 % ID/g
Urine (% ID at 1 h p.i.) (NCI-H460 tumor [3]): 86.6 ± 4.4 % ID
T/Blood (NCI-H460 tumor [3]): 9.7
T/Muscle (NCI-H460 tumor [3]): 32.2
